Assay results as given in ChEMBL document CHEMBL5113512, “β-Nitrostyrene derivatives as broad range potential antifungal agents targeting fungal cell wall” (2022).

Experiments:
Type in all cases: functional
Candida tropicalis = experiment: Antifungal activity against Candida tropicalis ATCC 750 assessed as inhibition of fungal growth by broth microdilution method
Candida albicans [1] = experiment: Antifungal activity against Candida albicans ATCC 24433 overexpressing AD(1-8)u-assessed as inhibition of fungal growth by broth microdilution method
Candida albicans [2] = experiment: Antifungal activity against Candida albicans ATCC 24433 overexpressing transporter protein F5 assessed as inhibition of fungal growth by broth microdilution method
Candida albicans [3] = experiment: Antifungal activity against Candida albicans ATCC 24433 overexpressing ADCDR1-GFP assessed as inhibition of fungal growth by broth microdilution method
[Candida] auris [4] = Antifungal activity against Candida auris 102 assessed as inhibition of fungal growth by broth microdilution method; details: Candidozyma auris
Candida albicans [5] = experiment: Antifungal activity against Candida albicans ATCC 24433 overexpressing ADCaMDR1-GFP assessed as inhibition of fungal growth by broth microdilution method
Nakaseomyces glabratus = experiment: Antifungal activity against Candida glabrata ATCC 2001 assessed as inhibition of fungal growth by broth microdilution method
[Candida] auris [6] = Antifungal activity against Candida auris 105 assessed as inhibition of fungal growth by broth microdilution method; details: Candidozyma auris
Candida parapsilosis = experiment: Antifungal activity against Candida parapsilosis ATCC 90018 assessed as inhibition of fungal growth by broth microdilution method; details: Lodderomyces parapsilosis
Candida albicans [7] = experiment: Antifungal activity against Candida albicans ATCC 24433 overexpressing transporter protein GU4 assessed as inhibition of fungal growth by broth microdilution method
Candida albicans [8] = experiment: Synergistic antifungal activity against Candida albicans ATCC 24433 overexpressing ADPDR5-G assessed as fractional inhibitory concentration index incubated for 48 hrs in presence of caspofungin by checker board assay
Candida albicans [9] = experiment: Antifungal activity against Candida albicans ATCC 24433 assessed as inhibition of fungal growth by broth microdilution method
Candida albicans [10] = experiment: Antifungal activity against Candida albicans ATCC 24433 overexpressing transporter protein F2 assessed as inhibition of fungal growth by broth microdilution method
Candida albicans [11] = experiment: Antifungal activity against Candida albicans SN152 harboring CAS5 mutant assessed as inhibition of fungal growth by broth microdilution method
Candida albicans [12] = experiment: Antifungal activity against Candida albicans ATCC 24433 overexpressing transporter protein GU5 assessed as inhibition of fungal growth by broth microdilution method
[Candida] auris [13] = Antifungal activity against Candida auris 118 assessed as inhibition of fungal growth by broth microdilution method; details: Candidozyma auris
[Candida] auris [14] = Antifungal activity against wild type Candida auris 102 assessed as inhibition of fungal growth by broth microdilution method; details: Candidozyma auris
Candida albicans [15] = experiment: Synergistic antifungal activity against Candida albicans ATCC 24433 overexpressing ADCDR1-GFP assessed as fractional inhibitory concentration index incubated for 48 hrs in presence of caspofungin by checker board assay
Candida albicans [16] = experiment: Synergistic antifungal activity against Candida albicans ATCC 24433 overexpressing ADCaMDR1-GFP assessed as fractional inhibitory concentration index incubated for 48 hrs in presence of caspofungin by checker board assay
Candida albicans [17] = experiment: Antifungal activity against wild type Candida albicans SN152 assessed as inhibition of fungal growth by broth microdilution method
Candida albicans [18] = experiment: Antifungal activity against Candida albicans ATCC 24433 overexpressing ADPDR5-GFP assessed as inhibition of fungal growth by broth microdilution method
Candida albicans [19] = experiment: Synergistic antifungal activity against Candida albicans ATCC 24433 assessed as fractional inhibitory concentration index incubated for 48 hrs in presence of caspofungin by checker board assay

O=[N+]([O-])/C=C/c1cccc(O)c1
<0.5: fractional inhibitory concentration index (FICI) (Candida albicans [8]) | fractional inhibitory concentration index (FICI) (Candida albicans [15]) | fractional inhibitory concentration index (FICI) (Candida albicans [16])
> 32 µg/mL: MIC80 (Candida tropicalis)
4 µg/mL: MIC80 (Candida albicans [5]) | MIC80 (Candida albicans [18])
32 µg/mL: MIC80 (Candida albicans [7])
16 µg/mL: MIC80 (Candida albicans [1]) | MIC80 (Candida albicans [3]) | MIC80 (Nakaseomyces glabratus) | MIC80 (Candida parapsilosis) | MIC80 (Candida albicans [9]) | MIC80 (Candida albicans [10]) | MIC80 (Candida albicans [12]) | MIC80 (Candida albicans [17])
8 µg/mL: MIC80 (Candida albicans [2]) | MIC80 ([Candida] auris [4]) | MIC80 ([Candida] auris [6]) | MIC80 (Candida albicans [11]) | MIC80 ([Candida] auris [13]) | MIC80 ([Candida] auris [14])

COc1ccc(/C=C/[N+](=O)[O-])cc1OC
32 µg/mL: MIC80 (Candida albicans [3]) | MIC80 (Nakaseomyces glabratus) | MIC80 (Candida parapsilosis) | MIC80 (Candida albicans [7]) | MIC80 (Candida albicans [9])
16 µg/mL: MIC80 (Candida tropicalis) | MIC80 (Candida albicans [1]) | MIC80 (Candida albicans [2]) | MIC80 (Candida albicans [5]) | MIC80 (Candida albicans [10]) | MIC80 (Candida albicans [12]) | MIC80 (Candida albicans [18])
4 µg/mL: MIC80 ([Candida] auris [13]) | MIC80 ([Candida] auris [14])
8 µg/mL: MIC80 ([Candida] auris [4]) | MIC80 ([Candida] auris [6])

CC/C(=C\c1ccc(OC)c(OC)c1)[N+](=O)[O-]
16 µg/mL: MIC80 (Candida tropicalis) | MIC80 (Candida albicans [1]) | MIC80 (Candida albicans [7]) | MIC80 (Candida albicans [9])
32 µg/mL: MIC80 (Candida albicans [3]) | MIC80 (Nakaseomyces glabratus) | MIC80 (Candida parapsilosis)
<0.5: fractional inhibitory concentration index (FICI) (Candida albicans [8]) | fractional inhibitory concentration index (FICI) (Candida albicans [15]) | fractional inhibitory concentration index (FICI) (Candida albicans [16])
8 µg/mL: MIC80 (Candida albicans [2]) | MIC80 ([Candida] auris [4]) | MIC80 (Candida albicans [5]) | MIC80 ([Candida] auris [6]) | MIC80 (Candida albicans [10]) | MIC80 (Candida albicans [12]) | MIC80 ([Candida] auris [13]) | MIC80 ([Candida] auris [14]) | MIC80 (Candida albicans [18])

OC(Cn1cncn1)(Cn1cncn1)c1ccc(F)cc1F [FLUCONAZOLE]
1 µg/mL: MIC80 (Candida albicans [11]) | MIC80 (Candida albicans [17])

CC/C(=C\c1cccc([N+](=O)[O-])c1)[N+](=O)[O-]
4 µg/mL: MIC80 (Candida albicans [2]) | MIC80 (Candida albicans [10])
<0.5: fractional inhibitory concentration index (FICI) (Candida albicans [8]) | fractional inhibitory concentration index (FICI) (Candida albicans [15]) | fractional inhibitory concentration index (FICI) (Candida albicans [19]) | fractional inhibitory concentration index (FICI) (Candida albicans [16])
8 µg/mL: MIC80 ([Candida] auris [4]) | MIC80 (Candida albicans [5]) | MIC80 ([Candida] auris [6]) | MIC80 (Candida albicans [7]) | MIC80 (Candida albicans [11]) | MIC80 ([Candida] auris [13]) | MIC80 ([Candida] auris [14])
32 µg/mL: MIC80 (Candida parapsilosis) | MIC80 (Candida albicans [9])
16 µg/mL: MIC80 (Candida tropicalis) | MIC80 (Candida albicans [1]) | MIC80 (Candida albicans [3]) | MIC80 (Nakaseomyces glabratus) | MIC80 (Candida albicans [12]) | MIC80 (Candida albicans [17]) | MIC80 (Candida albicans [18])

C[C@@H]1[C@H](O)[C@@H](C)/C=C/C=C/C=C/C=C/C=C/C=C/C=C/[C@H](O[C@@H]2O[C@H](C)[C@@H](O)[C@H](N)[C@@H]2O)C[C@@H]2O[C@](O)(C[C@@H](O)C[C@@H](O)[C@H](O)CC[C@@H](O)C[C@@H](O)CC(=O)O[C@H]1C)C[C@H](O)[C@H]2C(=O)O [AMPHOTERICIN B]
0.5 µg/mL: MIC80 (Candida albicans [11]) | MIC80 (Candida albicans [17])

COc1ccc(/C=C(\C)[N+](=O)[O-])cc1
2 µg/mL: MIC80 (Candida albicans [2]) | MIC80 ([Candida] auris [6]) | MIC80 (Candida albicans [10]) | MIC80 ([Candida] auris [14])
16 µg/mL: MIC80 (Candida parapsilosis)
4 µg/mL: MIC80 (Candida tropicalis) | MIC80 (Candida albicans [1]) | MIC80 ([Candida] auris [4]) | MIC80 (Candida albicans [5]) | MIC80 (Nakaseomyces glabratus) | MIC80 (Candida albicans [7]) | MIC80 (Candida albicans [12]) | MIC80 ([Candida] auris [13]) | MIC80 (Candida albicans [18])
<1.5: fractional inhibitory concentration index (FICI) (Candida albicans [19])
<0.5: fractional inhibitory concentration index (FICI) (Candida albicans [8]) | fractional inhibitory concentration index (FICI) (Candida albicans [15]) | fractional inhibitory concentration index (FICI) (Candida albicans [16])
8 µg/mL: MIC80 (Candida albicans [3]) | MIC80 (Candida albicans [9])

Nc1c(/N=N/c2ccc(-c3ccc(/N=N/c4cc(S(=O)(=O)[O-])c5ccccc5c4N)cc3)cc2)cc(S(=O)(=O)[O-])c2ccccc12.[Na+].[Na+] [CONGO RED]
0.781 µg/mL: MIC80 (Candida albicans [11])
100 µg/mL: MIC80 (Candida albicans [17])

C/C(=C\c1ccc(N(C)C)cc1)[N+](=O)[O-]
16 µg/mL: MIC80 (Candida tropicalis) | MIC80 (Candida albicans [1]) | MIC80 (Candida albicans [2]) | MIC80 (Candida albicans [7]) | MIC80 (Candida albicans [9]) | MIC80 (Candida albicans [10]) | MIC80 (Candida albicans [12]) | MIC80 (Candida albicans [18])
32 µg/mL: MIC80 (Candida albicans [3]) | MIC80 (Nakaseomyces glabratus) | MIC80 (Candida parapsilosis)
8 µg/mL: MIC80 ([Candida] auris [4]) | MIC80 (Candida albicans [5]) | MIC80 ([Candida] auris [6]) | MIC80 ([Candida] auris [13]) | MIC80 ([Candida] auris [14])
